Measurements from patent US8632792B2, “Cooling sensation agent composition and sensory stimulation agent composition” (Takasago International Corporation, priority 2008, dated 2014).

Experiments:
[1] = test system: professional examiners; experiment: Cooling treated towel (direct spraying), organoleptic ranking of cooling action; assay type: in vivo; details: for cooling action (in words), strength and consistency: comparison over 10 min to 24 hr, within the compound class
From the text: 1% ethanol solution of each of di-1-menthyl carbonate, di-1-isopulegol carbonate, 1-menthyl-1-menthoxy ethyl carbonate, 1-menthyl-1-isopulegol carbonate, 1-menthoxypropanediol methylheptenone ketal, 1-menthoxypropanediol benzaldehyde acetal, 1-menthoxypropanediol-l-citronellal acetal, menthyl palmitate, menthyl stearate, menthyl isostearate, 1-menthol, and an equivalent-weight mixture of 1-menthyl-menthoxy ethyl carbonate, menthoxypropanediol citronellal acetal and menthyl isostearate was prepared. The solution was sprayed on a pure cotton hand towel (white plain towel made in Japan, 20 cm×20 cm, degrease-finished) in an amount of 1 g. After the towel was air-dried for 10 minutes, 3 hours, or 24 hours, the cooling action of each towel was determined organoleptically. Fifteen professional examiners with 5 years or more of experience are divided into three groups; different 5 kinds of samples were ranked from the strongest to weakest in action respectively by the examiners in three groups; and the result was shown by the sum of the ranking numbers.

[2] = test system: internal bronchia; experiment: Cooling towel (washing processed), organoleptic ranking of cooling action; assay type: in vivo; details: for sum of the ranking numbers (cooling effect on treated hand towel after washing): 1% in base washing detergent, low sum = strong; for cooling action (in words), strength and durability: washing processed towel, comparison within the compound class
From the text: (§1) Each of di-1-menthyl carbonate, di-1-isopulegol carbonate, 1-menthyl-1-menthoxy ethyl carbonate, 1-menthyl-1-isopulegol carbonate, 1-menthoxypropanediol benzaldehyde acetal, 1-menthoxypropanediol methylheptenone ketal, 1-menthoxypropanediol-1-citronellal acetal, menthyl palmitate, menthyl stearate, menthyl isostearate, 1-menthoxypropanediol, and an equivalent-weight mixture of 1-menthyl-menthoxy ethyl carbonate, menthoxypropanediol citronellal acetal and menthyl isostearate was compounded with a base washing detergent solution at a concentration of 1%.
(§2) A pure cotton hand towel (white plain towel made in Japan, 20 cm×20 cm, degrease-finished) was hand-washed for 3 minutes at a particular concentration (water: 10 L, detergent: 3 g, water temperature: 17° C.), then washed with the same amount of water for 2 minutes, squeezed lightly, and air-dried indoor for 6 hours. The hand towels prepared, the hand towels after 24 hours and the hand towels after 48 hours were brought into contact with the internal bronchia and the cooling action thereof was determined organoleptically. The determination was conducted as same as Example 1, that is, […] professional examiners are divided into three groups; different 5 kinds of samples were ranked from the strongest to weakest in action respectively by the examiners in three groups; and the result was shown by the sum of the ranking numbers.

[3] = as above; assay type: in vivo; details: after washing treatment and air drying for 6 hours
From the text: as §1, §2

[4] = Group A, air-dried 10 min, 1 g of 1% ethanol solution sprayed on cotton towel, ranked strongest to weakest (low sum = strong)
[5] = Group A, air-dried 3 hr, 1% ethanol solution, low sum = strong
[6] = Group A, air-dried 24 hr, 1% ethanol solution, low sum = strong
[7] = Group B, air-dried 10 min, 1% ethanol solution, low sum = strong
[8] = Group B, air-dried 3 hr, 1% ethanol solution, low sum = strong
[9] = Group B, air-dried 24 hr, 1% ethanol solution, low sum = strong
[10] = Group B, 24 hr (third time point)
[11] = Group C, air-dried 10 min, 1% ethanol solution, low sum = strong
[12] = Group C, air-dried 3 hr, 1% ethanol solution, low sum = strong
[13] = Group C, air-dried 24 hr, 1% ethanol solution, low sum = strong

| Structure (SMILES) | sum of the ranking numbers (cooling effect on treated hand towel at direct spraying) [1, 4] | sum of the ranking numbers (cooling effect on treated hand towel at direct spraying) [1, 5] | sum of the ranking numbers (cooling effect on treated hand towel at direct spraying) [1, 6] | sum of the ranking numbers (cooling effect on treated hand towel at direct spraying) [1, 7] | sum of the ranking numbers (cooling effect on treated hand towel at direct spraying) [1, 8] | sum of the ranking numbers (cooling effect on treated hand towel at direct spraying) [1, 9] | sum of the ranking numbers (cooling effect on treated hand towel after washing) ([2]; Group A, 6 hr) | sum of the ranking numbers (cooling effect on treated hand towel after washing) ([2]; Group A, 24 hr) | sum of the ranking numbers (cooling effect on treated hand towel after washing) ([2]; Group A, 48 hr) | sum of the ranking numbers (cooling effect on treated hand towel after washing) ([2]; Group B, 6 hr) | sum of the ranking numbers (cooling effect on treated hand towel after washing) [2, 10] | sum of the ranking numbers (cooling effect on treated hand towel after washing) ([2]; Group B, 24 hr) | other results |
| --- | --- | --- | --- | --- | --- | --- | --- | --- | --- | --- | --- | --- | --- |
| CC(C)[C@@H]1CC[C@@H](C)C[C@H]1O [l-Menthol, 1-menthol, reference compound] | 5 | 24 | 25 | 5 | 25 | 25 | 25 | 25 | 25 | 25 | 25 | 25 | cooling action (in words) ([1]; direct spraying, after air drying for 10 minutes): strongest cooling action; cooling action (in words), strength and consistency ([1]; direct spraying): less consistent |
| CCCCCCCCCCCCCCCC(=O)OC1CC(C)CCC1C(C)C (centres unmarked) [Menthyl palmitate, menthyl palmitate] |  |  |  |  |  |  |  |  |  |  |  |  | sum of the ranking numbers (cooling effect on treated hand towel at direct spraying) [1, 11]: 15; sum of the ranking numbers (cooling effect on treated hand towel at direct spraying) [1, 12]: 17; sum of the ranking numbers (cooling effect on treated hand towel at direct spraying) [1, 13]: 17; sum of the ranking numbers (cooling effect on treated hand towel after washing) ([2]; Group C, 6 hr): 18; sum of the ranking numbers (cooling effect on treated hand towel after washing) ([2]; Group C, 24 hr): 16; sum of the ranking numbers (cooling effect on treated hand towel after washing) ([2]; Group C, 48 hr): 17 |
| CC1CCC(C(C)C)C(OCC(O)CO)C1 (centres unmarked) [1-menthoxypropanediol, reference compound] |  |  |  |  |  |  |  |  |  |  |  |  | cooling action (in words) [3]: did not have cooling action |
| C=C(C)[C@@H]1CC[C@@H](C)C[C@H]1OC(=O)O[C@@H]1C[C@H](C)CC[C@H]1C(=C)C [Di-l-isopulegol carbonate, di-1-isopulegol carbonate] | 17 | 12 | 11 |  |  |  | 14 | 13 | 14 |  |  |  | melting point: 86 to 87 °C |
| CC(C)[C@@H]1CC[C@@H](C)C[C@H]1OCCOC(=O)O[C@@H]1C[C@H](C)CC[C@H]1C(C)C [l-Menthyl-l-menthoxy ethyl carbonate, 1-menthyl-1-menthoxy ethyl carbonate] | 10 | 5 | 5 |  |  |  | 8 | 7 | 7 |  |  |  | cooling action (in words), strength and consistency ([1]; direct spraying): superior both in initial strength and consistency; cooling action (in words), strength and durability [2]: strongest |
| CC(C)[C@@H]1CC[C@@H](C)C[C@H]1OCC1COC(c2ccccc2)O1 (some centres unmarked) [1-menthoxypropanediol benzaldehyde acetal] |  |  |  | 15 | 9 | 9 |  |  |  | 11 | 11 | 11 |  |
| CC(C)=CCCC1(C)OCC(CO[C@@H]2C[C@H](C)CC[C@H]2C(C)C)O1 (some centres unmarked) [1-menthoxypropanediol methylheptenone ketal] |  |  |  | 13 | 6 | 6 |  |  |  | 10 | 10 | 11 | cooling action (in words), strength and consistency ([1]; direct spraying): strongest in action |
| CC(C)=CCC[C@H](C)CC1OCC(CO[C@@H]2C[C@H](C)CC[C@H]2C(C)C)O1 (some centres unmarked) [1-menthoxypropanediol-1-citronellal acetal] |  |  |  | 18 | 16 | 16 |  |  |  | 13 | 13 | 13 |  |
| CC(C)[C@@H]1CC[C@@H](C)C[C@H]1OC(=O)O[C@@H]1C[C@H](C)CC[C@H]1C(C)C [Di-l-menthyl carbonate, di-1-menthyl carbonate] | 24 | 21 | 20 | 24 | 19 | 19 | 16 | 18 | 18 | 16 | 16 | 15 | sum of the ranking numbers (cooling effect on treated hand towel at direct spraying) [1, 11]: 17; sum of the ranking numbers (cooling effect on treated hand towel at direct spraying) [1, 12]: 21; sum of the ranking numbers (cooling effect on treated hand towel at direct spraying) [1, 13]: 21; sum of the ranking numbers (cooling effect on treated hand towel after washing) ([2]; Group C, 6 hr): 16; sum of the ranking numbers (cooling effect on treated hand towel after washing) ([2]; Group C, 24 hr): 21; sum of the ranking numbers (cooling effect on treated hand towel after washing) ([2]; Group C, 48 hr): 21; cooling action (in words), strength and durability [2]: weakest |
| CCCCCCCCCCCCCCCCCC(=O)OC1CC(C)CCC1C(C)C (centres unmarked) [Menthyl stearate, menthyl stearate] |  |  |  |  |  |  |  |  |  |  |  |  | sum of the ranking numbers (cooling effect on treated hand towel at direct spraying) [1, 11]: 21; sum of the ranking numbers (cooling effect on treated hand towel at direct spraying) [1, 12]: 15; sum of the ranking numbers (cooling effect on treated hand towel at direct spraying) [1, 13]: 17; sum of the ranking numbers (cooling effect on treated hand towel after washing) ([2]; Group C, 6 hr): 21; sum of the ranking numbers (cooling effect on treated hand towel after washing) ([2]; Group C, 24 hr): 18; sum of the ranking numbers (cooling effect on treated hand towel after washing) ([2]; Group C, 48 hr): 17 |
| C=C(C)[C@@H]1CC[C@@H](C)C[C@H]1OC(=O)O[C@@H]1C[C@H](C)CC[C@H]1C(C)C [l-Menthyl-l-isopulegol carbonate, 1-menthyl-1-isopulegol carbonate] | 19 | 1 | 14 |  |  |  | 12 | 12 | 11 |  |  |  |  |
